PubChem BioAssay (NCI)
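Abbreviation: GI50, concentration required for 50% inhibition of growth. TGI denotes the concentration required for complete inhibition of growth.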

What was measured:
Assay in all cases: DTP human tumour cell line panel, 384-well format; in the data active = GI50 below about 0.43 µM; inactive = the rest
KM12 colon = system: KM12 colon
BT-549 breast = system: BT-549 breast
DU-145 prostate = system: DU-145 prostate
HOP-62 NSCLC = system: HOP-62 NSCLC
U251 glioblastoma = system: U251 glioblastoma
T-47D breast = system: T-47D breast
SNB-19 CNS = system: SNB-19 CNS
RXF 393 renal = system: RXF 393 renal
NCI-H226 lung = system: NCI-H226 lung
MDA-MB-231 breast = system: MDA-MB-231 breast
SNB-75 CNS = system: SNB-75 CNS
HCT-15 colon = system: HCT-15 colon
A549 NSCLC = system: A549 NSCLC

Cc1cc([C@H](C)Nc2nccc(N3C(=O)OC[C@@H]3[C@H](C)F)n2)ncc1-c1ccnc(C(F)(F)F)c1
inactive: GI50 (KM12 colon) 40.1 µM | GI50 (BT-549 breast) 28 µM | GI50 (DU-145 prostate) 41.7 µM | GI50 (HOP-62 NSCLC) 54.5 µM | GI50 (U251 glioblastoma) 36.4 µM | GI50 (T-47D breast) 5.13 µM | GI50 (SNB-19 CNS) 42.7 µM | GI50 (RXF 393 renal) 15.7 µM | GI50 (NCI-H226 lung) 25.3 µM | GI50 (MDA-MB-231 breast) 46.4 µM | GI50 (SNB-75 CNS) 29.7 µM | GI50 (HCT-15 colon) 33.9 µM | GI50 (A549 NSCLC) 41.1 µM
76.5 µM: TGI (RXF 393 renal)
> 100 µM: TGI (KM12 colon) | TGI (BT-549 breast) | TGI (DU-145 prostate) | TGI (HOP-62 NSCLC) | TGI (U251 glioblastoma) | TGI (T-47D breast) | TGI (SNB-19 CNS) | TGI (NCI-H226 lung) | TGI (MDA-MB-231 breast) | TGI (SNB-75 CNS) | TGI (HCT-15 colon) | TGI (A549 NSCLC)
